Measured values from publication PMC7933930, “Development of a small molecule that corrects misfolding and increases secretion of Z α1‐antitrypsin” (EMBO Molecular Medicine, 2021).

Columns and labels:
M α1‐antitrypsin = molecular target: T1, M α1‐antitrypsin (Homo sapiens, UniProt P01009); assay: Stoichiometry of inhibition against chymotrypsin, M α1‐antitrypsin; assay type: biochemical; details: M α1‐antitrypsin pre‐incubated with GSK716 (50µM), read-out: loss of protease inhibitory activity
T1 construct: purified from the plasma of M (wild‐type) and Z α1‐antitrypsin homozygotes; from tissue; host or cells: human plasma of M (wild-type) homozygotes
Experimental: Mutations that interfere with the opening of β‐sheet A or that perturb its interaction with the N‐terminal portion of the reactive centre loop alter the ability of serpins to inhibit target proteases (Hood et al, 1994; Irving et al, 2014). The stoichiometry of inhibition (SI) was determined for M α1‐antitrypsin and Z α1‐antitrypsin in discontinuous experiments against a model target protease, chymotrypsin. The pre‐incubation of both variants with GSK716 led to a > 98% loss of protease inhibitory activity (Fig 5A).
Figure 5 The effect of GSK716 on serpin inhibitory activity • α1‐Antitrypsin was incubated at varying molar ratios with the model protease bovine α‐chymotrypsin, and the residual protease activity determined. […] The position of covalent α1‐antitrypsin‐chymotrypsin complex (cpx), native (nat) and cleaved (clv) is shown. • The inhibitory activity of α1‐antichymotrypsin against chymotrypsin (ach + chym), neuroserpin against trypsin (neus + tryp), and antithrombin against thrombin (atiii + thrombin) was determined in the presence and absence of GSK716. […]
The native state stability of α1‐antitrypsin on addition of compounds was investigated by thermal denaturation in the presence of a 5X concentration of SYPRO Orange dye solution (Life Technologies) (Nettleship et al, 2008). Resistance to heat‐induced polymerisation was determined using an end‐point constant‐temperature assay. […]

antithrombin = antithrombin (Homo sapiens, UniProt P01008); assay: Inhibitory activity of antithrombin against thrombin; assay type: biochemical
Experimental: (§1) Figure 5 The effect of GSK716 on serpin inhibitory activity • α1‐Antitrypsin was incubated at varying molar ratios with the model protease bovine α‐chymotrypsin, and the residual protease activity determined. The intercept of the regression with the abscissa reflects the number of molecules of α1‐antitrypsin required to inhibit one molecule of chymotrypsin in the presence (+c) and absence (−c) of 50µM GSK716. Error bars reflect ± SEM of three independent experiments. • M α1‐antitrypsin was incubated with different molar ratios of chymotrypsin and resolved by SDS–PAGE. The position of covalent α1‐antitrypsin‐chymotrypsin complex (cpx), native (nat) and cleaved (clv) is shown. • The inhibitory activity of α1‐antichymotrypsin against chymotrypsin (ach + chym), neuroserpin against trypsin (neus + tryp), and antithrombin against thrombin (atiii + thrombin) was determined in the presence and absence of GSK716. Error bars reflect ± SD of two independent experiments.
(§2) GSK716 selectivity and PK properties were profiled in order to investigate the suitability of GSK716 for progression into in vivo studies and the potential for taking it forward as a clinical candidate for testing in humans. Since GSK716 results in loss of inhibitory activity of α1‐antitrypsin, the effect of the compound was assessed on other closely related serpins. […]

neuroserpin = neuroserpin (Homo sapiens, UniProt Q99574); assay: Inhibitory activity of neuroserpin against trypsin; assay type: biochemical
Experimental: as §1, §2

mouse hepatocytes = assay: Hepatocyte clearance, mouse; assay type: in vitro ADME
Experimental: Williams E media supplemented with 2 mM L‐glutamine and 25 mM HEPES and test compound (final compound concentration 0.5 µM; final DMSO concentration 0.25% v/v) were preincubated at 37°C prior to the addition of a suspension of cryopreserved pooled hepatocytes (final cell density 0.5 × 10^6 viable cells/ml) to initiate the reaction. The final incubation volume was 500 µl. The reactions were stopped by transferring 50 µl of incubate to 100 µl acetonitrile containing internal standard at the appropriate time points (0, 5, 10, 20, 40 and 60 min, 0, 10, 20, 40, 60 and 120 min or 0, 20, 40, 60, 120 and 240 min). The control (lysed cells or vehicle) was incubated for 60, 120 or 240 min only. The termination plates were centrifuged at 2,500 rpm at 4°C for 30 min to precipitate the protein. Following protein precipitation, the sample supernatants were analysed by LC‐MS/MS. From a plot of loge peak area ratio (compound peak area/internal standard peak area) against time, the gradient of the line was determined and half‐life (t½) and intrinsic clearance (CLint) were calculated.

[1] = Oral pharmacokinetics in male CD‐1 mouse; assay type: in vivo
Experimental: Male CD‐1 mice, Han Wistar rats or beagle dogs were administered GSK716 as a suspension in 1% w/v aqueous methylcellulose via oral gavage at doses of 1 mg/kg (dog) or 10, 30 and 100 mg/kg (mouse, rat). Blood samples were taken into EDTA, diluted and mixed with acetonitrile containing internal standard (alprazolam) and centrifuged to precipitate proteins. Aliquots of the resultant supernatant were analysed by LC‐MS/MS, and concentrations of GSK716 in blood were determined. Non‐compartmental pharmacokinetic analysis (NCA) was carried out using Phoenix WinNonLin 6.3 (Certara L.P.). Free drug was measured in Z α1‐antitrypsin transgenic mice by dialysing tissue samples in rapid equilibrium dialysis cassettes.

Adrenergic α2C = Adrenergic α2C (Homo sapiens, UniProt P18825); assay: Off‐target panel: Adrenergic α2C (DRX); assay type: cell-based
Experimental: (§3) GSK716 selectivity and PK properties were profiled in order to investigate the suitability of GSK716 for progression into in vivo studies and the potential for taking it forward as a clinical candidate for testing in humans. Since GSK716 results in loss of inhibitory activity of α1‐antitrypsin, the effect of the compound was assessed on other closely related serpins. […] Furthermore, there were no off‐target effects in a panel of assays considered predictive of known safety liabilities that precluded further development of GSK716 (Table EV1).

Dopamine D2 = Dopamine D2 (Homo sapiens, UniProt P14416); assay: Off‐target panel: Dopamine D2; assay type: cell-based
Experimental: as §3

LCK = LCK (Homo sapiens, UniProt P06239); assay: Off‐target panel: LCK; assay type: biochemical; details: Inhibition, read-out: Mean (PXC50)
Experimental: as §3

Muscarinic M1 = molecular target: T2, Muscarinic M1 (Homo sapiens, UniProt P11229); assay: Off‐target panel: Muscarinic M1; assay type: cell-based
T2 sequence (P11229 1-460): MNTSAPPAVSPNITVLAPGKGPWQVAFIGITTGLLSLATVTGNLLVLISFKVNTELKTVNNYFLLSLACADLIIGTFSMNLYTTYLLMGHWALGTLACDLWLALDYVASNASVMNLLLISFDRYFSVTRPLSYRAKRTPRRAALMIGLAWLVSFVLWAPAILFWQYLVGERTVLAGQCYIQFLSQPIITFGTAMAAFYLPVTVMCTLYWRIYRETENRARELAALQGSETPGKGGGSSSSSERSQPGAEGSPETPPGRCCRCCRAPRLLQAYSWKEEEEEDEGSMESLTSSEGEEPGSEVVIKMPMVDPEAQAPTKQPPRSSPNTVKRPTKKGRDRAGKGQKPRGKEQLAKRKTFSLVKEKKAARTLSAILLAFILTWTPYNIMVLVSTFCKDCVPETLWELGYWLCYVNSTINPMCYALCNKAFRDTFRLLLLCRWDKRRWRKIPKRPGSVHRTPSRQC
Experimental: as §3

OPRM1 = OPRM1 (Homo sapiens, UniProt P35372); assay: Off‐target panel: OPRM1; assay type: cell-based
Experimental: as §3

Chain of Dopamine D2 (P14416 whole entry): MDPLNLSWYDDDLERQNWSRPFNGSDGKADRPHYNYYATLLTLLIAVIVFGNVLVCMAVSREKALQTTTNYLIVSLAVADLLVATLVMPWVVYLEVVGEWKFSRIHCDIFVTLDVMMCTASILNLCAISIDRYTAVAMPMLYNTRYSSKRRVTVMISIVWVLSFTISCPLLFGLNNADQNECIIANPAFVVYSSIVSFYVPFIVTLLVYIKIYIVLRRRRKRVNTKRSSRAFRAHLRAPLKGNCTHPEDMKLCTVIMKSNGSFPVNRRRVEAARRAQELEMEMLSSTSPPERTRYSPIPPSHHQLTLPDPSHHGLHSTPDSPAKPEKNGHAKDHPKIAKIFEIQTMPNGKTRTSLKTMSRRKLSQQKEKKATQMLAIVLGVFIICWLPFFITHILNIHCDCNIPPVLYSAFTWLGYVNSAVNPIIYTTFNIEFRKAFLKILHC
Chain of OPRM1 (P35372 whole entry, species assumed): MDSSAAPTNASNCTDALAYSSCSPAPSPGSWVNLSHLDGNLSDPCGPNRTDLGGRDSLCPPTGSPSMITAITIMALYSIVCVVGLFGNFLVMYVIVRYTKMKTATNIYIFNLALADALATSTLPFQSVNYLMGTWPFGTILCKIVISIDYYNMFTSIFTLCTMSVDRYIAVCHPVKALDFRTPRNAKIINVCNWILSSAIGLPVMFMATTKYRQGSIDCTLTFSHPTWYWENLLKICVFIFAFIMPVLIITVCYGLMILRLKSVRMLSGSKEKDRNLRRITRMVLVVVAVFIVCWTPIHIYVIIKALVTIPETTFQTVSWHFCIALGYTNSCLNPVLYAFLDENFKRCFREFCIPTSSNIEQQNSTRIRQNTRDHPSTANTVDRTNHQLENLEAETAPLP
Chain of neuroserpin (Q99574 17-410, species assumed): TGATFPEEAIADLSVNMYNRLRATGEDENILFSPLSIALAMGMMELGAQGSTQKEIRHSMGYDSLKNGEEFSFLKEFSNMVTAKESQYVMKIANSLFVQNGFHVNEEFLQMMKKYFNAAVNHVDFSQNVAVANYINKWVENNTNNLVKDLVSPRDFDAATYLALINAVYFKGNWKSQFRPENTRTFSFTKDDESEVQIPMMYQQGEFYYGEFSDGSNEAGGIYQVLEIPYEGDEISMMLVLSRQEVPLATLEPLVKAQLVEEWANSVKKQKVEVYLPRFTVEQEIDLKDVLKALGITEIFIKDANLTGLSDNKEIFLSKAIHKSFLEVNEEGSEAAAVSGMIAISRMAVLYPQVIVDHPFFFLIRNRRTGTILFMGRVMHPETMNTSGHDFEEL
T1 sequence (P01009 25-418): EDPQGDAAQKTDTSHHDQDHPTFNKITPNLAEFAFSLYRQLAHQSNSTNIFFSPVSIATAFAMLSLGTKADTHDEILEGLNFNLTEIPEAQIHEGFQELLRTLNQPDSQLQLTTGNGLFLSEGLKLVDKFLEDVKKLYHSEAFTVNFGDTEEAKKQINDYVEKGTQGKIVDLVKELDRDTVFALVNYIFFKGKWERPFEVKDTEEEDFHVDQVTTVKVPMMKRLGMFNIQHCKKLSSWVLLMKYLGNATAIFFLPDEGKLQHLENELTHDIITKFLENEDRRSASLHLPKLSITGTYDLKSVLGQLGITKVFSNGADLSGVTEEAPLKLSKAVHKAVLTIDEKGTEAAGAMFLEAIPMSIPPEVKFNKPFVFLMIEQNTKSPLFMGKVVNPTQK
Chain of antithrombin (P01008 33-464): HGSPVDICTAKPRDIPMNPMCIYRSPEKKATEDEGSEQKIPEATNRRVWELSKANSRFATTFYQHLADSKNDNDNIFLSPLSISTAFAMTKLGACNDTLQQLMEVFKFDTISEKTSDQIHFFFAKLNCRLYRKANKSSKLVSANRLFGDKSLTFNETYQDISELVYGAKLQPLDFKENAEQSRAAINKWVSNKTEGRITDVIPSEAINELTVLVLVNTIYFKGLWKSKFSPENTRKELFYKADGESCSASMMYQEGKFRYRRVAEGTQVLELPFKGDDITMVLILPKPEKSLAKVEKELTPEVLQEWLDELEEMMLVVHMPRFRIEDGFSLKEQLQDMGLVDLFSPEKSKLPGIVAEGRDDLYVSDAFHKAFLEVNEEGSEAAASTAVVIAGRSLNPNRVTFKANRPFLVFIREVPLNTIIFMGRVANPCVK
Chain of LCK (P06239 whole entry, species assumed): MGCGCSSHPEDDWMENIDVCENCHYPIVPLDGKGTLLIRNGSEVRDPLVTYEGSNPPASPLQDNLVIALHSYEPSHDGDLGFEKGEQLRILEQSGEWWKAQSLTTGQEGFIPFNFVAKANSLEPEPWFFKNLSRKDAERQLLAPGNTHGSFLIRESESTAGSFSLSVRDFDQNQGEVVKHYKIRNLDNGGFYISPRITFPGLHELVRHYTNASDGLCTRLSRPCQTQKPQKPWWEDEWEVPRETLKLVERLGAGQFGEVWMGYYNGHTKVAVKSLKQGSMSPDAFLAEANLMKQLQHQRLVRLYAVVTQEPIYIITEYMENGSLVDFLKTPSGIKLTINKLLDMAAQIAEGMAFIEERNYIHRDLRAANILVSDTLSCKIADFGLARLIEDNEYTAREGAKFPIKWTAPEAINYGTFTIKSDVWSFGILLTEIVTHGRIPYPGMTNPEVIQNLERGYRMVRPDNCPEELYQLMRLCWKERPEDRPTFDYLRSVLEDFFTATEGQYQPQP
Chain of Adrenergic α2C (P18825 whole entry): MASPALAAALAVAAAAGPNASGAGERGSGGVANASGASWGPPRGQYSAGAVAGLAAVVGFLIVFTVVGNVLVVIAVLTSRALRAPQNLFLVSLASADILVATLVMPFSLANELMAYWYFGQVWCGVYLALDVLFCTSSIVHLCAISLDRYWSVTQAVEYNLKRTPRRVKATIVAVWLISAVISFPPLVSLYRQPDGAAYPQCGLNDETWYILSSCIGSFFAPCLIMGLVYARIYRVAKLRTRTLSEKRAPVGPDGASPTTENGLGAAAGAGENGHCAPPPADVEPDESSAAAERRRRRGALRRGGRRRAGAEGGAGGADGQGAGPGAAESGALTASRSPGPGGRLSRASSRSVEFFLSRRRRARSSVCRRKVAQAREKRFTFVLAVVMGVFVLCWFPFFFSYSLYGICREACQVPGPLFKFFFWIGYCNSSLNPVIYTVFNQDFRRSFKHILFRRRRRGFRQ

What does the source list for `CCC[C@@H](NC(=O)c1cccc2c1CC(=O)N2)[C@@H](O)c1cccc(F)c1C` [GSK716]?
inhibition at 50 µM (M α1‐antitrypsin): > 98%; inhibitory activity of antithrombin towards its cognate protease (antithrombin): did not affect; inhibitory activity of neuroserpin towards its cognate protease (neuroserpin): did not affect; metabolic clearance in mouse hepatocytes (mouse hepatocytes): 4.56 ml/min/g tissue; DNAUCinf in blood ([1]; single PO 10 mg/kg): 202 ± 101; DNAUCinf in blood ([1]; single PO 30 mg/kg): 294 ± 47; DNAUCinf in blood ([1]; single PO 100 mg/kg): 403 ± 246; EC50 (Adrenergic α2C): > 100 µM; EC50 (Dopamine D2): > 100 µM; IC50 (Dopamine D2): > 100 µM; IC50 (LCK): > 31.6 µM; EC50 (Muscarinic M1): > 50.1 µM; IC50 (Muscarinic M1): > 50.1 µM; EC50 (OPRM1): > 100 µM
